{
  "source": "patent US11952328B2",
  "about": "“Selective ship inhibitors for treating disease” (THE RESEARCH FOUNDATION FOR THE STATE UNIVERSITY OF NEW YORK, priority 2018, dated 2024)",
  "key": {"RMA-Rael cells": {"system": "RMA-Rael cells", "experiment": "Overall survival of RMA-Rael tumor challenged hosts (Kaplan-Meier)", "assay_type": "in vivo, mice", "experimental": "FIGS. 6A-6I show the survival of tumor bearing mice treated with a SHIP inhibitor. […] Hosts were treated on the day of tumor challenge and the following day as in FIG. 1. The 2-day treatment course was repeated each week for the duration of survival. […] Mice received either NK cell depleting, anti-NK1.1 antibody (PK136), or isotype control antibody prior to tumor challenge (5×10^5 RMA-Rael). The hosts received SHIP inhibitor two consecutive days each week until death. […] The hosts were treated on the day of tumor challenge and the following day as in FIG. 1. The 2-day treatment course was repeated each week for the duration of survival.\nThe most clinically relevant endpoint in any cancer therapy study is not a measured decrease in tumor burden, but instead, a significant increase in survival promoted by the treatment.\nIn order to further define 3AC′s capacity to control malignancy through immunomodulatory effects the capacity of 3AC to promote resistance of NSG, TcRa^−/− and NK cell depleted hosts to RMA-Rael tumor challenge was examined. As before, mice received treatment with 3AC or vehicle for two consecutive days each week followed by a five-day cessation of treatment to prevent disarming and/or exhaustion. This treatment strategy was continued indefinitely and survival was monitored (FIG. 6A). To confirm that, in addition to the chemotherapeutic effect documented in FIG. 5, 3AC-induced enhanced-NK and -T cell activity is important for the survival benefit following tumor challenge, NSG mice (mice deficient of all lymphocyte lineages) were challenged.\nTo determine if T cells are required for the 3AC-mediated survival benefit, the same expirement using TcRa^−/− hosts that lack a TcR-ab^+ T cell compartment was repeated. […] To directly test the requirement for an intact NK cell compartment for 3AC-mediated increased survival after tumor challenge, the experiment as described in FIG. 6A were repeated challenging C57BL/6 hosts that were first depleted of\nNK cells. Here, prior to tumor challenge, hosts were injected with either NK cell depleting anti-NK1.1 antibody (C57BL/6-DNK) or with antibody isotype control (C57BL/6-iso) (FIG. 6B).\nThe SHIP1 inhibitor 3AC was then tested in a genetic model in which the molecular target, SHIP1, was absent in a key target population of T cells, which are required for protection in the RMA-Rael lymphoma challenge model. […] Thus, SHIP inhibitor protection after tumor challenge is lost when the T cell compartment lacks the molecular target (SHIP1) in T cells.\nThere are two paralogs of SHIP: SHIP1 which is expressed in a limited range of tissues including hematopoietic cells, and SHIP2 which is expressed by a wide array of cell types. To determine if SHIP2 may also play a role in host defense against malignancy as described above tumor bearing mice were treated with small-molecule inhibitors against SHIP2 as well. […] Stem Cells. (2015); 33: 848-858; Hoekstra, E. et al., Lipid phosphatase SHIP2 functions as oncogene in colorectal cancer by regulating PKB activation. Oncotarget. (2016) 7: 73525-73540). Like 3AC, pan-SHIP1/2 inhibitors such as K118 are also cytotoxic for RMA-Rael cells in vitro. The pan SHIP1/2 inhibitory compounds K118 and K149 were compared to the SHIP1 selective compound 3AC.\nSimultaneous inhibition of both SHIP1and SHIP2 may be deleterious to the immune response promoted by 3AC. […] In the study, the SHIP1 selective inhibitor 3AC that provides for protection after RMA-Rael challenge was simulataneously co-administered."}, "[1]": {"system": "CT26 colon carcinoma cells", "experiment": "Subcutaneous CT26 colon carcinoma model", "assay_type": "in vivo, BALB/C mice", "experimental": "FIG. 7A and FIG. 7B show CT26 (FIG. 7A) and MC-38 (FIG. 7B) viability following in vitro treatment with 3AC for 24 h at indicated doses. Relative viability is expressed as frequency compared to solvent only treated cells. Kill curve summarizes pooled data from three independent experiments using six replicate wells/concentration with mean±SEM indicated. BALB/C mice were challenged with subcutaneous injection of CT26 colon carcinoma cells in the right flank. Mice were treated with either 2 consecutive days of 3AC or vehicle control each week as in FIG. 4A. Tumor size at […] 28 days (FIG. 7C), and tumor weight on day 28 determined after dissection of tumor (FIG. 7E). […] C57BL/6 mice were challenged with subcutaneous injection of MC-38 colon carcinoma cells in the right flank. Mice were treated with either 2 consecutive days of SHIP inhibitor or vehicle control each week as in FIG. 4A. Tumor size at 14, 21 and 25 days (FIG. 7D), and tumor weight (FIG. 7F) on day 25 were determined after dissection of tumor. […] FIG. 7A (n=18 per group. One-way ANOVA with Dunnett's multiple comparisons. 0 μM vs. 20 μM Adjusted p value=0.0463. All other concentrations of SHIP inhibitor compared with solvent only N.S.). FIG. 7B (n=18 per group. One-way ANOVA with Dunnett's multiple comparisons. All concentrations of SHIP inhibitor compared with solvent only N.S.). FIGS. 7C-7F graphs represent data from one of two independent experiments. FIG. 7C (n=10. Day 14 p<0.0001, Unpaired t test with Welch's correction. Day 21 p<0.0001, two-tailed student's t-test. Day 28 p<0.0001, two-tailed Student's t-test). FIG. 7E (n=10. P<0.0001, two-tailed Student's t-test) FIG. 7D (n=10. Day 14 p=0.0005, two-tailed student's t-test. Day 21 p=0.0009, two-tailed Student's t-test. Day 25 p=0.0009, two-tailed student's t-test). FIG. 7F (n=10. P=0.0067, two-tailed student's t-test).\nColorectal cancer is the second leading cause of cancer mortality in the United States (Siegel, R. L. et al., Colorectal cancer statistics, 2017. CA Cancer J Clin. (2017)). […]"}},
  "data": [
    {"smiles": "CC(C)CCC[C@@H](C)[C@H]1CC[C@H]2[C@@H]3CCC4C[C@H](N)CC[C@]4(C)[C@H]3CC[C@]12C", "note": "(stereo partly drawn) [Compound 3AC, 3-α-aminocholestane]", "values": [
      {"measurement": "overall survival", "setting": "RMA-Rael cells; 3AC-treated NK cell depleted C57BL/6 (anti-NK1.1) vs 3AC-treated isotype control hosts", "result": "significantly compromised survival"},
      {"measurement": "long-term survival", "setting": "RMA-Rael cells; C57BL/6 hosts, 1×10^5 RMA-Rael, FIG. 6H", "result": "long-term survival in a subset of hosts"},
      {"measurement": "overall survival (protection)", "setting": "RMA-Rael cells; C57BL/6 hosts, 1×10^5 RMA-Rael, FIG. 6H, vs vehicle", "result": "extended survival"},
      {"measurement": "overall survival", "setting": "RMA-Rael cells; C57BL/6 hosts, 5×10^5 RMA-Rael, two consecutive days each week, five-day cessation, vs vehicle", "result": "significantly increased survival"},
      {"measurement": "overall survival", "setting": "RMA-Rael cells; CD4CreSHIP flox/flox mice treated with 3AC vs vehicle-treated SHIP+/flox mice", "result": "comparable survival"},
      {"measurement": "median survival", "setting": "RMA-Rael cells; NSG mice, pulsatile dosing, vs vehicle-treated NSG", "result": "very modest increase"},
      {"measurement": "overall survival", "setting": "RMA-Rael cells; SHIP flox/flox mice treated with 3AC vs 3AC-treated CD4CreSHIP flox/flox and vehicle-treated SHIP+/flox", "result": "enhanced survival"},
      {"measurement": "overall survival", "setting": "RMA-Rael cells; TcRa−/− hosts, pulsatile dosing, compared to 3AC treatment of C57BL/6 hosts", "result": "did not prolong survival"},
      {"measurement": "long term survival", "setting": "RMA-Rael cells; subpopulation of 3AC treated C57BL/6 mice, pulsatile dosing, tumor uniformly lethal in vehicle mice", "result": "durable, long term survival without any evidence of tumor burden"},
      {"measurement": "tumor weight", "setting": "[1]; day 28, vs vehicle", "result": "significant reduction"},
      {"measurement": "tumor size", "setting": "[1]; two consecutive days each week, days 14, 21, 28, vs vehicle", "result": "significant reduction"},
      {"measurement": "histological analysis (H&E) of tumors", "setting": "[1]; vs vehicle", "result": "prominent zones of tumor cell death"}
    ]}
  ]
}
